Each structure is given as a SMILES string.

We go through 39 compounds from the RepoRT retention time repository (doi:10.1016/j.chroma.2014.05.003).

The nature of this data set: RP, Agilent ZORBAX Eclipse Plus C18, 50 × 4.6 mm, 1.8 µm, 0.5 mL/min, estimated dead time 1.1 min; A: water + 0.1% formic acid; B: acetonitrile + 0.1% formic acid; gradient (min/%B) 0/10 3/10 25/100 28/100. The settings on record: stereoisomer not certain.

For the compound `COP(=S)(OC)Oc1ccc([N+](=O)[O-])c(C)c1`, the LC retention time is 17.2 min.

Turning to `CCCN(CC)CC1COC2(CCC(C(C)(C)C)CC2)O1` (centres undefined), the LC retention time is 12.5 min. `Cc1ccc(NS(=O)(=O)N(C)C)cc1`: the LC retention time is 12.9 min. For the compound `COc1cc(Cc2cnc(N)nc2N)cc(OC)c1OC`, the LC retention time was 5.6 min. Turning to `COc1nc(NC(C)C)nc(NC(C)C)n1`, the LC retention time was 9.02 min. The value for `CCOC(=O)CC(SP(=S)(OC)OC)C(=O)OCC` (centres undefined) was 17 min; that for `CCNc1nc(NC(C)(C)C)nc(OC)n1` was 9.32 min.

With `CN1CCC23c4c5ccc(O)c4OC2C(O)C=CC3C1C5` (centres undefined), the LC retention time is 1.47 min. `CC(C)c1cc(Oc2ccccc2)cc(C(C)C)c1NC(=S)NC(C)(C)C`: the LC retention time is 22.3 min.

Take `COCC(=O)N(c1c(C)cccc1C)N1CCOC1=O`: the LC retention time is 10.9 min. In the case of `CCOP(=S)(OCC)Oc1cnc2ccccc2n1`, the LC retention time is 18.2 min. In the case of `CC(C)c1ccc(NC(=O)N(C)C)cc1`, the LC retention time is 12.9 min. As for `CCOP(=O)(OCC)OCC`, the LC retention time is 9.03 min. Take `Nc1ncn[nH]1`: the LC retention time was 1.36 min.

As for `CCN(CC)C(=O)C(C)Oc1cccc2ccccc12` (centres undefined), the LC retention time is 16.3 min. Turning to `CNC(=O)Oc1cccc(C)c1`, the LC retention time is 11 min. Turning to `Nc1ccc(S(=O)(=O)Nc2ncccn2)cc1`, the LC retention time is 4.16 min.

Take `CNC(=O)Oc1ccccc1C(C)C`: the LC retention time is 13.6 min. Consider `CN(C)C(=O)Nc1ccccc1`, for which the LC retention time is 7.72 min. The value for `CN1C2CCC1C(C(=O)O)C(OC(=O)c1ccccc1)C2` (centres undefined) was 6.61 min. Consider `COC(=O)c1ccccc1S(=O)(=O)NC(=O)Nc1nc(C)cc(C)n1`, for which the LC retention time was 12.2 min. Consider `CC(C)(c1ccc(O)cc1)c1ccc(O)cc1`, for which the LC retention time is 13.1 min. For `Nc1ccc(-c2ccc(N)cc2)cc1` the value was 1.36 min; for `CNC(=O)Oc1cccc2c1OC(C)(C)C2O` (centres undefined), 7.87 min; for `CCOP(=O)(SC(C)CC)N1CCSC1=O` (centres undefined), 12.7 min.

On to `COC(=O)Nc1nc2ccc(S(=O)c3ccccc3)cc2[nH]1` (centres undefined), for which the LC retention time is 8.64 min. As for `COC(=O)Nc1nc2ccc(Sc3ccccc3)cc2[nH]1`, the LC retention time was 12.6 min.

With `CC(C)N1C(=O)c2ccccc2NS1(=O)=O`, the LC retention time is 12.7 min. As for `CSC(C)=NOC(=O)N(C)SN(C)C(=O)ON=C(C)SC`, the LC retention time is 11.8 min. Take `CC(N)Cc1ccccc1` (centres undefined): the LC retention time is 3.82 min. For `CCOc1ccc(NC(C)=O)cc1` the value was 9.38 min. The value for `O=NN1CCOCC1` was 2.21 min.

On to `Cc1onc(-c2ccccc2)c1C(=O)NC1C(=O)N2C1SC(C)(C)C2C(=O)O` (centres undefined), for which the LC retention time was 12.8 min. For the compound `CCN(CC)N=O`, the LC retention time is 15.9 min. For the compound `CCC(C)C(=O)OC1CCC=C2C=CC(C)C(CCC3CC(O)CC(=O)O3)C21` (centres undefined), the LC retention time is 15.7 min.

`COP(=S)(OC)Oc1ccc([N+](=O)[O-])cc1`: the LC retention time was 16.3 min. Regarding `Nc1ccc(S(=O)(=O)Nc2nccs2)cc1`, the LC retention time was 5.2 min. Turning to `CCC1CCCC(OC2CCC(N(C)C)C(C)O2)C(C)C(=O)C2=CC3C(C=CC4CC(OC5OC(C)C(OC)C(OC)C5OC)CC43)C2CC(=O)O1` (centres undefined), the LC retention time is 14.9 min. Regarding `CS(=O)(=O)c1ccc(C(=O)C2C(=O)CCCC2=O)c([N+](=O)[O-])c1`, the LC retention time was 12 min.
